Consider one molecule from ChEMBL document CHEMBL3616395, “Discovery of 4-arylamido 3-methyl isoxazole derivatives as novel FMS kinase inhibitors” (Eur J Med Chem, 2015).

The test system of experiment [1] is Serine/threonine-protein kinase B-raf (Homo sapiens), P15056 [V600E]. Description: Inhibition of BRAF V599E mutant (unknown origin) at 10 uM after 40 mins by scintillation counting analysis.
Experiment [2] concerns the target Epidermal growth factor receptor (Homo sapiens) (UniProt P00533). Description: Inhibition of EGFR (unknown origin) at 10 uM after 40 mins by scintillation counting analysis.
For experiment [3], the target named is Glycogen synthase kinase-3 beta (Homo sapiens) (UniProt P49841). The experiment can be described thus: Inhibition of GSK3b (unknown origin) at 10 uM after 40 mins by scintillation counting analysis.
Sequence of Glycogen synthase kinase-3 beta (Homo sapiens) (P49841 whole entry, looked up): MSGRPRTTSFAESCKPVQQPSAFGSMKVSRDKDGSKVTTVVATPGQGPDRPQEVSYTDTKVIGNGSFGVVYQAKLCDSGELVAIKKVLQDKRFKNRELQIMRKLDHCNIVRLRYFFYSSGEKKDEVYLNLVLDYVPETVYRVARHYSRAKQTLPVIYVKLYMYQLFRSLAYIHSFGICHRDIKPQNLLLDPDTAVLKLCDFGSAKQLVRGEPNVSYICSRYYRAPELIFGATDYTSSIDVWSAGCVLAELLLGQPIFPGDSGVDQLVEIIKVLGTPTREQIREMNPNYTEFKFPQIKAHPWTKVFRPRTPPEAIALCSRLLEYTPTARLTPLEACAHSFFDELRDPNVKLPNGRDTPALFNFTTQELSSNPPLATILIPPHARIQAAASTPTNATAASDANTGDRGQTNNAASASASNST
For experiment [4], the target named is Serine/threonine-protein kinase mTOR (Homo sapiens, UniProt P42345). Description: Inhibition of mTOR (unknown origin) at 10 uM after 40 mins by scintillation counting analysis.
Experiment [5] deals with RAF proto-oncogene serine/threonine-protein kinase (Homo sapiens, UniProt P04049). The experiment can be described thus: Inhibition of RAF1 (unknown origin) at 10 uM after 40 mins by scintillation counting analysis.
Sequence of RAF proto-oncogene serine/threonine-protein kinase (P04049 whole entry): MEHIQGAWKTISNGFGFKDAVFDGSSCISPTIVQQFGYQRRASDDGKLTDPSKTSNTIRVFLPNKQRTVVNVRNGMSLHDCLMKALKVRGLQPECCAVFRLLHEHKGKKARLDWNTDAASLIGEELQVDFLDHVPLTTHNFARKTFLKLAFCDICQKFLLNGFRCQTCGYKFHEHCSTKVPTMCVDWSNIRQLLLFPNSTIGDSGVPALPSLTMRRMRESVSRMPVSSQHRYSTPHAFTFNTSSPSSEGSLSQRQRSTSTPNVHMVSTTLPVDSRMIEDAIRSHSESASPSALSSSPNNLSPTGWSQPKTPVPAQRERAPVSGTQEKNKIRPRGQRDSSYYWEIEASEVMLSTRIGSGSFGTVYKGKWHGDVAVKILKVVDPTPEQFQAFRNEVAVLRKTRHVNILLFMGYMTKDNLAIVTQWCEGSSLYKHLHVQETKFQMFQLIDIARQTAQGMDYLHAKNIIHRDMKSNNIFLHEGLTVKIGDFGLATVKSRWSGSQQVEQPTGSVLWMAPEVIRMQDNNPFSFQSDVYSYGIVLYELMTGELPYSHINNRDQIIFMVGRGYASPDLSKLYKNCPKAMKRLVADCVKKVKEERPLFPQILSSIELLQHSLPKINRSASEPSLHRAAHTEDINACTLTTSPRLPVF
For experiment [6], the target named is Macrophage colony-stimulating factor 1 receptor (Homo sapiens, UniProt P07333). The experiment can be described thus: Inhibition of FMS (unknown origin) after 40 mins by scintillation counting analysis.
Sequence of Macrophage colony-stimulating factor 1 receptor (P07333 whole entry): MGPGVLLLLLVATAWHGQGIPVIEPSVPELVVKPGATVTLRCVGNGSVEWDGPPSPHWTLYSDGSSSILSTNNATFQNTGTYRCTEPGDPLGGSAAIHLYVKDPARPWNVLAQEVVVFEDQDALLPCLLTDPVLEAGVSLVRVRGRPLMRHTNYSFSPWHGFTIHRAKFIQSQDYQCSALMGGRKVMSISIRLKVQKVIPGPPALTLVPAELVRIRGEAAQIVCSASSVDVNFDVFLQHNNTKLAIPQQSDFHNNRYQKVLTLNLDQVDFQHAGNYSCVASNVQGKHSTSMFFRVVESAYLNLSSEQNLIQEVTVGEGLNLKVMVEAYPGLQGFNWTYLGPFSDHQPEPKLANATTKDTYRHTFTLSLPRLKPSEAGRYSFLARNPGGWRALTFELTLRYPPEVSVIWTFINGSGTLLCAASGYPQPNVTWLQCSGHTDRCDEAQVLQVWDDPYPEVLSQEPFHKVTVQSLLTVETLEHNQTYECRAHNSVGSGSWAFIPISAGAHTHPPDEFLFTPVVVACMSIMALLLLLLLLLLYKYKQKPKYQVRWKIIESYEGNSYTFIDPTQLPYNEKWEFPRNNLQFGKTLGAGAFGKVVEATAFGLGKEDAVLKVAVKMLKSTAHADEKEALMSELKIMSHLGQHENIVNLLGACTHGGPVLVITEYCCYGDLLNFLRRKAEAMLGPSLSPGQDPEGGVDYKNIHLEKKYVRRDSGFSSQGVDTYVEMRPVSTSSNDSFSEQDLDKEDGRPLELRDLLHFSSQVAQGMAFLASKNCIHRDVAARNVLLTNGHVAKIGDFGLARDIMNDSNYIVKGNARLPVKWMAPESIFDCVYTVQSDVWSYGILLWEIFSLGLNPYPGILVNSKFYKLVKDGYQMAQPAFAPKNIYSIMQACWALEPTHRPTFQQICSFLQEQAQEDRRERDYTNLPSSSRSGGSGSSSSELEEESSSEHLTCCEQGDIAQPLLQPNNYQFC
Experiment [7] has as its target Tyrosine-protein kinase Lck (Homo sapiens) (UniProt P06239). Description: Inhibition of LCK (unknown origin) at 10 uM after 40 mins by scintillation counting analysis.
Experiment [8] has as its target Proto-oncogene tyrosine-protein kinase Src (Homo sapiens) (UniProt P12931). The experiment can be described thus: Inhibition of c-SRC (unknown origin) at 10 uM after 40 mins by scintillation counting analysis.
Experiment [9] addresses Vascular endothelial growth factor receptor 3 (Homo sapiens) (UniProt P35916). The experiment can be described thus: Inhibition of FLT4 (unknown origin) at 10 uM after 40 mins by scintillation counting analysis.
The target in experiment [10] is Protein kinase C (PKC) (Homo sapiens) (UniProt O94806+P41743+P17252+P05129+Q05655+P05771+Q05513+Q02156+P24723+Q15139+Q04759). The experiment can be described thus: Inhibition of PKC (unknown origin) at 10 uM after 40 mins by scintillation counting analysis.

Calls of active or inactive are those of the source. The rule behind the calls is not given here.

Sequence of Serine/threonine-protein kinase B-raf (Homo sapiens), P15056 [V600E] (P15056 whole entry V600E): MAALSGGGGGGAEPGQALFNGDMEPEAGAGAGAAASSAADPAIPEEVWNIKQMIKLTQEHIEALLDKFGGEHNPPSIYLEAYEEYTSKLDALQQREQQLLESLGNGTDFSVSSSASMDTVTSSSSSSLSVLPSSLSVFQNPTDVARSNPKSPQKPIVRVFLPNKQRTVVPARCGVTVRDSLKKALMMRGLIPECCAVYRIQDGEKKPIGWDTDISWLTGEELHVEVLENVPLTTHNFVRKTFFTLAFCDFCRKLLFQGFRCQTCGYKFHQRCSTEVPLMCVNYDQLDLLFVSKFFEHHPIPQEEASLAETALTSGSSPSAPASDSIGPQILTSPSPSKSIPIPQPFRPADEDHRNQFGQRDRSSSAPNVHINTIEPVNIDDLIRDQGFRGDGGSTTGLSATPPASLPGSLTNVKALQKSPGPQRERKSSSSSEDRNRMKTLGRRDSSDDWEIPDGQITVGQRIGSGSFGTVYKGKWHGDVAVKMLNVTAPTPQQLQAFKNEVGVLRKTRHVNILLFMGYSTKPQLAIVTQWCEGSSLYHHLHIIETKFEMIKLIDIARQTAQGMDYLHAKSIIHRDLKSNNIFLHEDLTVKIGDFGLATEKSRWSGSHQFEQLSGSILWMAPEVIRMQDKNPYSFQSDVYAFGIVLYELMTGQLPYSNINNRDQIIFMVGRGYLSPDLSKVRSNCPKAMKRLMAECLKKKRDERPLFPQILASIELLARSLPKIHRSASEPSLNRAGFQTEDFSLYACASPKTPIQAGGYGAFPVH
Sequence of Proto-oncogene tyrosine-protein kinase Src (Homo sapiens) (P12931 2-536 limits assumed): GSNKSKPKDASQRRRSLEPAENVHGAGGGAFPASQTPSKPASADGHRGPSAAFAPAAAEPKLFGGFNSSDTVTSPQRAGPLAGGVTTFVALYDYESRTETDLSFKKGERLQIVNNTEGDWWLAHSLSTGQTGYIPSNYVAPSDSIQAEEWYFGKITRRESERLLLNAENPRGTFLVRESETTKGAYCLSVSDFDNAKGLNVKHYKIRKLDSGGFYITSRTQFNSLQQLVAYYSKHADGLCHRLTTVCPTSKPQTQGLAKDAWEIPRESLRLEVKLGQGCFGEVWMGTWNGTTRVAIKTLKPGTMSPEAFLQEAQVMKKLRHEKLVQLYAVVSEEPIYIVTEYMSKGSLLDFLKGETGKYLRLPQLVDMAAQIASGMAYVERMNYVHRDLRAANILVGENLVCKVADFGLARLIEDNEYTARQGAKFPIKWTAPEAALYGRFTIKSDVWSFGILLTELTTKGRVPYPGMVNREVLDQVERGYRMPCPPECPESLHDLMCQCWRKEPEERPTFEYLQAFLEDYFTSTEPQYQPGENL
Sequence of Tyrosine-protein kinase Lck (Homo sapiens) (P06239 2-509 limits assumed): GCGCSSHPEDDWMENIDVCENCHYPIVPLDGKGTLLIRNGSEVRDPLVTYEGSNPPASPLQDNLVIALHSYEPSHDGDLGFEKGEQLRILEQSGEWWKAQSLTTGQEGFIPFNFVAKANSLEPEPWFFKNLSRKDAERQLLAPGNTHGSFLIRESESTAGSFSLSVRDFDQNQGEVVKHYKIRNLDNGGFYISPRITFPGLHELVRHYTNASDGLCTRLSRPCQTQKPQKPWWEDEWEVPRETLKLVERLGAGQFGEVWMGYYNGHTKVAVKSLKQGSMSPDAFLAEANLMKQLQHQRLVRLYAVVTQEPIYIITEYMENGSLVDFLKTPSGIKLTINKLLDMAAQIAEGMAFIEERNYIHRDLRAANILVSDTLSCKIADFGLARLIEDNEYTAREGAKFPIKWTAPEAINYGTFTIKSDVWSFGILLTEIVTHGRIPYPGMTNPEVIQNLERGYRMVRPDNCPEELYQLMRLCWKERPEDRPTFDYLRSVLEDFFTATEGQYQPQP
Sequence of Epidermal growth factor receptor (Homo sapiens) (P00533 whole entry): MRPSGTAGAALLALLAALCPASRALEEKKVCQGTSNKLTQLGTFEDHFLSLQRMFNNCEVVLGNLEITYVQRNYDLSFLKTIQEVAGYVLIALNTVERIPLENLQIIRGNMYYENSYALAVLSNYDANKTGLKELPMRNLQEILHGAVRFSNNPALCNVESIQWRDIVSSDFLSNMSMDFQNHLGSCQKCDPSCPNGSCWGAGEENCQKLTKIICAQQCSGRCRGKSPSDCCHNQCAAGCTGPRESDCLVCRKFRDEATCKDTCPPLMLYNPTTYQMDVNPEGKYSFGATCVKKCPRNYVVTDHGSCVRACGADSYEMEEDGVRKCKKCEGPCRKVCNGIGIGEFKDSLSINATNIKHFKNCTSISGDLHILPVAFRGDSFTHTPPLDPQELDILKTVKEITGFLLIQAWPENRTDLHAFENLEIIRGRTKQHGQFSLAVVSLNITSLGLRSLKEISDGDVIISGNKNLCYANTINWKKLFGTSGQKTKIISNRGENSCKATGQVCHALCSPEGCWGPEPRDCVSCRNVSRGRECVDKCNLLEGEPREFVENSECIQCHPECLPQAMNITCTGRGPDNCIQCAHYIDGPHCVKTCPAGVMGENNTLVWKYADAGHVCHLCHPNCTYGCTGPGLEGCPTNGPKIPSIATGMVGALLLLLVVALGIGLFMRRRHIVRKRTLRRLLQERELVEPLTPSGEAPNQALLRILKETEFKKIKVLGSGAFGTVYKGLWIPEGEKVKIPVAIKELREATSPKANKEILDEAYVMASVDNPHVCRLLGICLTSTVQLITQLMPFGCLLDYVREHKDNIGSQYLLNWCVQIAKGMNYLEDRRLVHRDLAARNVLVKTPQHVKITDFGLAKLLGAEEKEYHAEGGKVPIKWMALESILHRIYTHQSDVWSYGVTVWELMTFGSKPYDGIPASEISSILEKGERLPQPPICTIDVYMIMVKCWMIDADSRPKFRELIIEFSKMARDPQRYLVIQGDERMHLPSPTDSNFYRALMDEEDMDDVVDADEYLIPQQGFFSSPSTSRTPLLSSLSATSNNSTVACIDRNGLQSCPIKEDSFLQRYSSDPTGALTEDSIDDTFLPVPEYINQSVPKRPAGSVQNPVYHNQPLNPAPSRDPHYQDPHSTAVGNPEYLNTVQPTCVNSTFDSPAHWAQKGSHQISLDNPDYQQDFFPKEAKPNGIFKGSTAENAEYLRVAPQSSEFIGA

For the molecule `Cc1ccccc1C(=O)Nc1cnoc1C`, the inhibition entry in experiment [1], in experiment [2], in experiment [3], in [4], in experiment [5] and in [7] was “inactive” throughout. Besides, the inhibition result in [8], in experiment [9] and in experiment [10] was “inactive” throughout. Besides, in experiment [6], the IC50 came out at 216 nM.

As usually defined, the IC50 is the concentration needed to halve the response being measured.
